Measurements published in PubChem BioAssay AID2005 (Sanford-Burnham Center for Chemical Genomics, 2009).
Active and inactive are the calls of the source.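 How the source made its calls: active means plate Z score at or below -3, or inhibition of at least 30% at 20 µM; inactive means the rest.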

Experiment: EGFP reporter destabilization counter-screen – F442A EGFP cells, fluorescence, counter-screen for p/CIP destabilizer project, dose response (AID 2005);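 further: cells express EGFP alone from a CMV promoter as a counter screen for p/CIP-EGFP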
Settings: F442A EGFP cells, EGFP fluorescence, 16 h, stronger effect = higher value

Compound	inhibition (EGFP decrease, at 10 µM) [%]	inhibition (at 20 µM)
COc1ccc(C(NC(=O)CC(C)C)c2c(O)ccc3ccccc23)cc1 (stereo not given)	18.1	5.2% (inactive)
Cc1ccc(NC(=S)NC(NC(=O)c2ccco2)C(Cl)(Cl)Cl)cc1 (stereo not given)	6.3	31.9%
Cc1onc(-c2ccccc2)c1C(=O)OCC(=O)Nc1cc(S(=O)(=O)N2CCOCC2)ccc1Cl	13.9	19.6% (inactive)
COC(=O)CSc1[nH]c(=O)cc(C)c1C#N	26.6	49.5%
Cc1ccc(OCC(=O)N2CCN(C(=O)c3ccco3)CC2)cc1	23.1	8.2% (inactive)
C[C@H](NC(=O)OCc1ccccc1)c1nnc([C@H](C)NC(=O)OCc2ccccc2)o1	-3.8	-5.1% (inactive)
COC(=O)COc1ccc(Oc2nc(SC)nc(N(C)C)n2)nn1	34.2	29.7% (inactive)
Cc1cc(C)n2nc(SCC(=O)c3ccccc3)nc2n1	23.7	31%
CCn1c(SCC(=O)Nc2nc3ccc(C)cc3s2)nc2c(c1=O)SC(C)C2 (stereo not given)	36.6	44.7%
CCN1CCN(c2cc(C)c3cc(NC(=S)N4CC(C)CC(C)C4)ccc3n2)CC1 (stereo not given)	28.8	12.7% (inactive)
COc1ccccc1CN1CC(C(=O)NCc2cc(F)cc(C(F)(F)F)c2)CCC1=O (stereo not given)	4.7	12.5% (inactive)
COc1ccc(CNCCCSc2ncccn2)c(OC)c1	11.1	16.3% (inactive)
CCN(Cc1ccccc1)C(=O)C(=O)c1cn(CC(=O)N2CCCC2)c2ccccc12	19.4	28.2% (inactive)
Cn1ncnc2c(=O)n(C)c(=O)nc1-2	49.3	61.7%
CCC1=C2CC[C@H]3C(=O)N(C)C(=O)[C@H]3[C@H]2[C@@]2(Cc3ccccc3)C(=NCCOC)OC(=O)N2C1=O	-6.2	13.4% (inactive)
COc1ccc(/C=C/C2=NN(Cc3ccccc3)C(=O)CC2)cc1	28.1	18.7% (inactive)
CC(OC(=O)C1CC1)C(=O)Nc1ccc([N+](=O)[O-])cc1Cl (stereo not given)	14.2	3.9% (inactive)
O=C(COC(=O)c1cnccn1)c1ccc(OC(=O)c2ccccc2)cc1	21	17% (inactive)
COc1ccccc1NC(=O)CSc1nncn1-c1cccnc1	4.7	8% (inactive)
CC(O)CNc1nc2c(c(=O)n(C)c(=O)n2C)n1Cc1cccc(Br)c1 (stereo not given)	24.8	12.7% (inactive)
CCCCCCn1c(=O)c(C(=O)Nc2cccc(C)n2)c(O)c2ccccc21	26.7	20.6% (inactive)
Cc1cc(C)n(-c2nc3c(c(=O)[nH]c(=O)n3C)n2CC(O)COc2ccccc2)n1 (stereo not given)	-7.9	7.8% (inactive)
CCC1(C)Cc2c(c(=O)n(-c3ccccc3)c3ncnc(N)c23)CO1 (stereo not given)	4.6	-38.9% (inactive)
CCC1CCCCN1C(=O)NC(=O)c1ccccc1 (stereo not given)	14.3	5.4% (inactive)
CCOC(=O)C(C)On1c(-c2ccccc2)nc2ccc([N+](=O)[O-])cc21 (stereo not given)	5.1	25% (inactive)
O=C1C2C3C=CC(C2C(=O)N1c1cccc(O)c1)C1C2C(=O)N(c4cccc(O)c4)C(=O)C2C31 (stereo not given)	-3	12.3% (inactive)
Cc1ccc(-c2nc(CS(=O)CC(=O)NC3CCC(C)CC3)c(C)o2)cc1 (stereo not given)	27.4	-4.5% (inactive)
Cn1cc(/C=C(\C(=O)O)C(C(=O)O)=C2CCCCC2)c2ccccc21	13.9	17.2% (inactive)

Compound	inhibition (EGFP decrease, at 10 µM) [%]	inhibition (at 20 µM)
N#Cc1cc(F)c(N2CCNCC2)cc1Cl	13.5	6.7% (inactive)
Cc1ccc(NC(=O)CC2C(=O)NC3CCCCC3N2C(=O)c2ccc(F)cc2)cc1C (stereo not given)	12.9	24.7% (inactive)
CCOc1ccc(-c2nc(-c3ccccc3)no2)cc1OCC	-19.3	1.4% (inactive)
O=C(c1ccccc1)N1CCCC(c2nc3c(nnn3Cc3ccccc3)c(=O)[nH]2)C1 (stereo not given)	32.3	16.2% (inactive)
Cc1cccc2cc(CN(Cc3ccc(F)cc3)Cc3nnnn3C3CCCC3)c(=O)[nH]c12	13.4	6.5% (inactive)
Cc1ccc2[nH]c3c(c2c1)CCCC3=O	28.5	27.9% (inactive)
COc1cc(CNCCCO)ccc1OCC(=O)NC(C)(C)C	-2.3	22.9% (inactive)
CCCCN(CCCC)CCCNC(=O)C12CN(Cc3ccccc3)CC1C(c1cccc([N+](=O)[O-])c1)=NO2 (stereo not given)	20.1	-9.9% (inactive)
COc1ccc(CNC(=O)C(c2ccc(C)o2)N(Cc2cccs2)C(=O)Cc2cccs2)cc1 (stereo not given)	33.3	25.5% (inactive)
O=C(CSc1nnc(-c2ccccc2F)o1)OCc1ccccc1	15.7	39%
COCCN(CC(=O)NC1CCCCC1)C(=O)CSc1nc2ccccc2o1	7.4	28.7% (inactive)
CC1(C)C(=O)Nc2ccccc2N1C(=O)COc1ncnc2c(Cl)cc(Cl)cc12	18.4	17.9% (inactive)
COc1cc(OC)cc(C(=O)NCC(=O)OCC(=O)N2CCc3ccccc32)c1	8.9	20.7% (inactive)
Cc1noc(C)c1CSc1nnc(C)c(=O)[nH]1	-9.8	-3.4% (inactive)
CCN1CCN(CCNC(=O)Nc2ccc([N+](=O)[O-])cc2)CC1	-0.7	6.6% (inactive)
CCC1=C(OC(=O)N(CC)CC)N2C(=O)OC(=NCC3CC3)[C@]2(Cc2ccccc2)[C@H]2C1=CC[C@H]1C(=O)N(CC(=O)OC)C(=O)[C@H]12	0.3	13.8% (inactive)
CCOc1ccccc1N1CCN(C(=O)c2cc(-c3cc(OC)ccc3OC)nc3ccccc23)CC1	20.9	24.9% (inactive)
O=C(Nc1ccnn1C1CCN(Cc2ccccc2OC(F)F)CC1)c1cccc(F)c1	26.5	37.8%
O=C(c1ccco1)N1CCN(C(=O)c2ccccc2[N+](=O)[O-])CC1	10.5	11.1% (inactive)
O=C(NC1=NCCS1)c1ccc(N2CCCC2=O)cc1	-10.3	-1.1% (inactive)
N#CCSCC(=O)Nc1ccc(F)cc1	4.7	4% (inactive)
CCc1cccc(C)c1NC(=O)CCNC(=O)c1cccc(C)c1	12.2	12.9% (inactive)
CCOc1ccc(NC(=O)/C(=C\c2ccc(OC(C)=O)c(OC)c2)NC(C)=O)cc1	1.3	-16.6% (inactive)
O=C(Nc1cccnc1)c1ccc(Cl)c(S(=O)(=O)N2CCCCCC2)c1	28.5	-6.9% (inactive)
O=C(NCC1CCCO1)C1CCCCN1S(=O)(=O)c1ccc(F)cc1 (stereo not given)	-13.3	9.4% (inactive)
CCNS(=O)(=O)c1ccc(OC)c(C(=O)NC2CCCCC2)c1	1.8	27.8% (inactive)
CC(C)=CC(=O)Nc1ccccc1Br	26.1	12.9% (inactive)
